Data from the supplement of paper PMC7287046.

What was measured:
Settings in all cases: exposure time: 72 h
U87 [1] = experiment: HSA synergy score (Combenefit); higher = more synergy
In short: (§1)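 Glioma cell lines in 96-well plates received pairs of drugs 24 h after plating, with an untreated control repeated sixfold. Each drug's top dose was set at its own IC50. The doses ran in 6 × 6 matrices of twofold steps, and readings taken three days later were made at least in triplicate. Viability by CellTiter-Glo, as percent of DMSO controls, was normalised and scored for Loewe, Bliss and highest single agent synergy in Combenefit.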

T98G [2] = experiment: as above
In short: as §1

SNB75 [3] = experiment: as above
In short: as §1

AM-38 [4] = experiment: as above
In short: as §1

SF268 [5] = experiment: as above
In short: as §1

SF539 [6] = experiment: as above
In short: as §1

U251 [7] = experiment: as above
In short: as §1

U118 [8] = experiment: as above
In short: as §1

KNS-42 [9] = experiment: as above
In short: as §1

U87 [10] = experiment: Chou-Talalay combination index (dimensionless); higher = less synergy (more antagonism)
In short: (§2)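 For combination testing, glioma cell lines were seeded at optimal density in 96-well plates, or in low-adhesion plates for primary cultures. Treatment began after 24 h with two drugs crossed in a 6 × 6 matrix of twofold dilutions, alongside an untreated control repeated sixfold, and CellTiter-Glo was read three days later at least in triplicate. Dilutions of each drug started from its single-drug IC50. Viability relative to DMSO controls, in percent, fed a median-effect calculation of the Chou–Talalay combination index.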

SNB75 [11] = experiment: as above
In short: as §2

KNS42 = experiment: as above
In short: as §2

SF268 [12] = experiment: as above
In short: as §2

T98 = experiment: as above
In short: as §2

SF539 [13] = experiment: as above
In short: as §2

U251 [14] = experiment: as above
In short: as §2

U118 [15] = experiment: as above
In short: as §2

AM38 = experiment: as above
In short: as §2

U87 [16] = experiment: Bliss synergy score (Combenefit); higher = more synergy; extreme values may be limits of the assay
In short: as §1

T98G [17] = experiment: as above
In short: as §1

SNB75 [18] = experiment: as above
In short: as §1

AM-38 [19] = experiment: as above
In short: as §1

SF268 [20] = experiment: as above
In short: as §1

SF539 [21] = experiment: as above
In short: as §1

U251 [22] = experiment: as above
In short: as §1

U118 [23] = experiment: as above
In short: as §1

KNS-42 [24] = experiment: as above
In short: as §1

U87 [25] = experiment: Loewe synergy score (Combenefit); higher = more synergy; extreme values may be limits of the assay
In short: as §1

T98G [26] = experiment: as above
In short: as §1

SNB75 [27] = experiment: as above
In short: as §1

AM-38 [28] = experiment: as above
In short: as §1

SF268 [29] = experiment: as above
In short: as §1

SF539 [30] = experiment: as above
In short: as §1

U251 [31] = experiment: as above
In short: as §1

U118 [32] = experiment: as above
In short: as §1

KNS-42 [33] = experiment: as above
In short: as §1

SMILES	HSA synergy score (U87 [1])	HSA synergy score (T98G [2])	HSA synergy score (SNB75 [3])	HSA synergy score (AM-38 [4])	HSA synergy score (SF268 [5])	HSA synergy score (SF539 [6])	HSA synergy score (U251 [7])	HSA synergy score (U118 [8])	HSA synergy score (KNS-42 [9])	Chou-Talalay combination index (U87 [10])	Chou-Talalay combination index (SNB75 [11])	Chou-Talalay combination index (KNS42)	Chou-Talalay combination index (SF268 [12])	Chou-Talalay combination index (T98)	Chou-Talalay combination index (SF539 [13])	Chou-Talalay combination index (U251 [14])	Chou-Talalay combination index (U118 [15])	Chou-Talalay combination index (AM38)	Bliss synergy score (U87 [16])	Bliss synergy score (T98G [17])	Bliss synergy score (SNB75 [18])	Bliss synergy score (AM-38 [19])	Bliss synergy score (SF268 [20])	Bliss synergy score (SF539 [21])	Bliss synergy score (U251 [22])	Bliss synergy score (U118 [23])	Bliss synergy score (KNS-42 [24])	Loewe synergy score (U87 [25])	Loewe synergy score (T98G [26])	Loewe synergy score (SNB75 [27])	Loewe synergy score (AM-38 [28])	Loewe synergy score (SF268 [29])	Loewe synergy score (SF539 [30])	Loewe synergy score (U251 [31])	Loewe synergy score (U118 [32])	Loewe synergy score (KNS-42 [33])
CCC(=O)N1CCN(c2ccc(-n3c(=O)ccc4cnc5ccc(-c6cnc7ccccc7c6)cc5c43)cc2C(F)(F)F)CC1 [Torin1] + CCCCCCCCCCCC1=C(O)C(=O)C=C(O)C1=O [Embelin]	3.43	0	7.31	2.04	2.48	2.69	6.4	2.41	5.07	0.673	0.841	0.865	0.864	0.173	0.855	0.874	0.917	0.856	2.62	0	1.77	0.037	0.248	0.761	2.83	1.08	0.0808	0.761	0	1.4	1.83	1.92	1.98	5.87	1.87	3.32
CO[C@H]1C[C@@H]2CC[C@@H](C)[C@@](O)(O2)C(=O)C(=O)N2CCCC[C@H]2C(=O)O[C@H]([C@H](C)C[C@@H]2CC[C@@H](O)[C@H](OC)C2)CC(=O)[C@H](C)/C=C(\C)[C@@H](O)[C@@H](OC)C(=O)[C@H](C)C[C@H](C)/C=C/C=C/C=C/1C [Rapamycin] + CCOc1nc(NC(=O)Cc2cc(OC)ccc2OC)cc(N)c1C#N [JNK inhibitor VIII]	5.37	0.183	19.9	3.73	0.46	0.625	8.47	2.12	6.4	0.776	0.706	0.843	1.09	0.917	1.09	0.74	1.1	0.906	4.63	0.183	0.0362	0	0	0	6.55	0	1.98	0.748	0.183	16.7	3.73	0.192	0.362	5.59	1.75	6.4
